From patent publication USRE48711E1, “Apoptosis signal-regulating kinase inhibitors” (Gilead Sciences, Inc., priority 2009, dated 2021) come the findings set out here.

The target in the assay is ASK1 (Apoptosis Signal-Regulating Kinase 1) (Homo sapiens (Human), UniProt Q99683). The experiment in a line: ASK1 (Apoptosis Signal-Regulating Kinase 1) TR-FRET Kinase Assay (Biochemical IC50). The note with it: TR-FRET, biotin-MBP substrate, 20 min pre-incubation, ATP added as 300 μM solution. (In general: Time-resolved FRET reads energy transfer from a long-lived donor to a nearby acceptor.)
ASK1 (Apoptosis Signal-Regulating Kinase 1), sequence (Q99683 649-946): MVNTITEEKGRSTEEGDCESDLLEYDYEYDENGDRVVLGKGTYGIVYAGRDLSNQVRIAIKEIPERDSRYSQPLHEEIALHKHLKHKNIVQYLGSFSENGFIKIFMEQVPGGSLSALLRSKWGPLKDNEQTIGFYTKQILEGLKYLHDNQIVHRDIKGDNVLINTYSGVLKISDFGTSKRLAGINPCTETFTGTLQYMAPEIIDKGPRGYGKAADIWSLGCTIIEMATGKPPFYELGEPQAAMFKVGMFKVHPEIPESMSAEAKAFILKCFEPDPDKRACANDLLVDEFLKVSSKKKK

For orientation: IC50 means the point on the concentration scale where inhibition reaches its midpoint. Read a low IC50 as inhibition by little substance.

As for `Cc1cc(C(=O)Nc2cccc(-c3nncn3C3CC3)n2)cc(-n2cnc(C3CC3)c2)c1` [Example 209, 3-(4-cyclopropyl-1H-imidazol-1-yl)-N-(6-(4-cyclopropyl-4H-1,2,4-triazol-3-yl)pyridin-2-yl)-5-methylbenzamide], the IC50 is 0.007 µM. This counts as single-digit nanomolar.
In the case of `NC(=O)CCn1cnnc1-c1cccc(NC(=O)c2cc(-c3cccnc3)ccn2)c1` [Example 16, N-(3-(4-(3-amino-3-oxopropyl)-4H-1,2,4-triazol-3-yl)phenyl)-3,4′-bipyridine-2′-carboxamide] it was 0.114 µM; in that of `Cn1c(-c2ccnc(C(=O)Nc3cccc(-c4nncn4C4CC4)c3)c2)cnc1-c1ccccc1` [Example 116, N-(3-(4-cyclopropyl-4H-1,2,4-triazol-3-yl)phenyl)-4-(1-methyl-2-phenyl-1H-imidazol-5-yl)picolinamide], 0.023 µM.
Consider `C[C@@H](c1ccccc1)n1cnnc1-c1cccc(NC(=O)c2cc(-c3ccc(C4CC4)nc3)ccn2)c1` [Example 220, (S)-6-cyclopropyl-N-(3-(4-(1-phenylethyl)-4H-1,2,4-triazol-3-yl)phenyl)-3,4′-bipyridine-2′-carboxamide], for which the IC50 turned out to be 0.061 µM. Against the preceding molecule, the IC50 is about 2.7-fold higher.
In turn, `O=C(Nc1cccc(-c2nncn2C2CC2)c1)c1cc(-c2cnc3ccccn23)ccn1` [Example 69, N-(3-(4-cyclopropyl-4H-1,2,4-triazol-3-yl)phenyl)-4-(imidazo[1,2-a]pyridin-3-yl)picolinamide] returned an IC50 of 0.011 µM. Against the preceding molecule, the IC50 is about 5.5-fold lower.
In the case of `O=C(Nc1cccc(-c2nncn2C2CC2)c1)c1cc(-c2cccnc2)ccn1` [Example 15, N-(3-(4-cyclopropyl-4H-1,2,4-triazol-3-yl)phenyl)-3,4′-bipyridine-2′-carboxamide] it was 0.011 µM.
In the case of `CC(C)N1CCc2ncc(-c3ccnc(C(=O)Nc4cccc(-c5nncn5C5CC5)c4)c3)cc2C1` [Example 172, N-(3-(4-cyclopropyl-4H-1,2,4-triazol-3-yl)phenyl)-4-(6-isopropyl-5,6,7,8-tetrahydro-1,6-naphthyridin-3-yl)picolinamide] it was 0.017 µM; in that of `CC(C)[C@H](C)n1cnnc1-c1cccc(NC(=O)c2cc(-c3ccc(C4CC4)nc3)ccn2)c1` [Example 238, (S)-6-cyclopropyl-N-(3-(4-(3-methylbutan-2-yl)-4H-1,2,4-triazol-3-yl)phenyl)-3,4′-bipyridine-2′-carboxamide], 0.006 µM; in that of `O=C(Nc1ccnc(-c2nncn2C2CC2)c1)c1cc(-c2ccc(C3CC3)nc2)ccn1` [Example 152, 6-cyclopropyl-N-(2-(4-cyclopropyl-4H-1,2,4-triazol-3-yl)pyridin-4-yl)-3,4′-bipyridine-2′-carboxamide], 0.286 µM.
In the case of `O=C(Nc1cccc(-c2nncn2C2CC2)c1)c1cc(-n2cnc(C(F)(F)C(F)(F)F)c2)ccn1` [Example 198, N-(3-(4-cyclopropyl-4H-1,2,4-triazol-3-yl)phenyl)-4-(4-(perfluoroethyl)-1H-imidazol-1-yl)picolinamide] it was 0.019 µM; in that of `O=C(Nc1cccc(-c2nncn2C2CC2)c1)c1cc(-n2cnc(Cl)c2)ccn1` [Example 122, 4-(4-chloro-1H-imidazol-1-yl)-N-(3-(4-cyclopropyl-4H-1,2,4-triazol-3-yl)phenyl)picolinamide], 0.017 µM.
In the case of `O=C(Nc1cccc(-c2nncn2C2CCOCC2)c1)c1cc(-c2cccnc2)ccn1` [Example 26, N-(3-(4-(tetrahydro-2H-pyran-4-yl)-4H-1,2,4-triazol-3-yl)phenyl)-3,4′-bipyridine-2′-carboxamide], half-maximal inhibition (IC50) was put at 1.97 µM.
Under `O=C(Nc1cccc(-c2nncn2C2CC2)c1)c1cc(-c2nnc(C3CC3)s2)ccn1` [Example 270, 4-(5-cyclopropyl-1,3,4-thiadiazol-2-yl)-N-(3-(4-cyclopropyl-4H-1,2,4-triazol-3-yl)phenyl)picolinamide] stands 0.107 µM.
In turn, `O=C(Nc1cccc(-c2nncn2C2CC2)c1)c1cc(-c2ccc(C3CC3)cc2)ccn1` [Example 129, N-(3-(4-cyclopropyl-4H-1,2,4-triazol-3-yl)phenyl)-4-(4-cyclopropylphenyl)picolinamide] gave an IC50 of 0.022 µM.
Under `Cc1noc(-c2ccnc(C(=O)Nc3cccc(-c4nncn4C4CC4)c3)c2)n1` [Example 253, N-(3-(4-cyclopropyl-4H-1,2,4-triazol-3-yl)phenyl)-4-(3-methyl-1,2,4-oxadiazol-5-yl)picolinamide] stands 3.49 µM; under `O=C(Nc1cccc(-c2nncn2C2CC2)n1)c1cccc(-c2ccc(C3CC3)nc2)c1` [Example 151, N-(6-(4-cyclopropyl-4H-1,2,4-triazol-3-yl)pyridin-2-yl)-3-(6-cyclopropylpyridin-3-yl)benzamide], 0.008 µM; under `O=C(Nc1cccc(-c2nncn2C2CC2)c1)c1cc(-c2cnc3c(c2)CNCC3)ccn1` [Example 154, N-(3-(4-cyclopropyl-4H-1,2,4-triazol-3-yl)phenyl)-4-(5,6,7,8-tetrahydro-1,6-naphthyridin-3-yl)picolinamide], 0.034 µM.
In the case of `O=C(Nc1cccc(-c2cncn2C2CC2)c1)c1cc(-c2cnc3ccccc3c2)ccn1` [Example 108, N-(3-(1-cyclopropyl-1H-imidazol-5-yl)phenyl)-4-(quinolin-3-yl)picolinamide] it was 0.041 µM; in that of `O=C(Nc1cccc(-c2nncn2C2CC2)n1)c1cc(-n2cnc(-c3ccccc3)c2)ccn1` [Example 113, N-(6-(4-cyclopropyl-4H-1,2,4-triazol-3-yl)pyridin-2-yl)-4-(4-phenyl-1H-imidazol-1-yl)picolinamide], 0.01 µM.
In the case of `CC(C)c1ccc(-c2ccnc(C(=O)Nc3cccc(-c4nncn4C4CC4)c3)c2)cn1` [Example 102, N-(3-(4-cyclopropyl-4H-1,2,4-triazol-3-yl)phenyl)-6-isopropyl-3,4′-bipyridine-2′-carboxamide] it was 0.009 µM.
With `CS(=O)(=O)c1ccc(-c2ccnc(C(=O)Nc3cccc(-c4nncn4C4CC4)c3)c2)cc1` [Example 79, N-(3-(4-cyclopropyl-4H-1,2,4-triazol-3-yl)phenyl)-4-(4-(methylsulfonyl)phenyl)picolinamide], the IC50 is 0.006 µM.
In the case of `C[C@@H](C1CC1)n1cnnc1-c1cccc(NC(=O)c2cc(-c3ccc(C4CC4)nc3)ccn2)c1` [Example 230, (S)-6-cyclopropyl-N-(3-(4-(1-cyclopropylethyl)-4H-1,2,4-triazol-3-yl)phenyl)-3,4′-bipyridine-2′-carboxamide] it was 0.058 µM; in that of `O=C(Nc1cccc(-c2nncn2C2CC2)c1)c1cc(-c2cnc3cccnc3c2)ccn1` [Example 190, N-(3-(4-cyclopropyl-4H-1,2,4-triazol-3-yl)phenyl)-4-(1,5-naphthyridin-3-yl)picolinamide], 0.013 µM.
`COc1ncccc1-c1ccnc(C(=O)Nc2cccc(-c3nncn3C3CC3)c2)c1` [Example 67, N-(3-(4-cyclopropyl-4H-1,2,4-triazol-3-yl)phenyl)-2-methoxy-3,4′-bipyridine-2′-carboxamide] registered an IC50 of 0.06 µM.
Under `O=C(Nc1cc(F)cc(-c2nncn2C2CC2)c1)c1cc(-c2cccnc2)ccn1` [Example 169, N-(3-(4-cyclopropyl-4H-1,2,4-triazol-3-yl)-5-fluorophenyl)-3,4′-bipyridine-2′-carboxamide] stands 0.157 µM; under `O=C(Nc1cccc(-c2nncn2C2CC2)c1)c1cc(-c2ccc(C3CC3)nc2)ccn1` [Example 50, 6-cyclopropyl-N-(3-(4-cyclopropyl-4H-1,2,4-triazol-3-yl)phenyl)-3,4′-bipyridine-2′-carboxamide], 0.008 µM; under `C[C@@H](C(=O)OC(C)(C)C)n1cnnc1-c1cccc(NC(=O)c2cc(-c3ccc(C4CC4)nc3)ccn2)c1` [Example 222, (S)-tert-butyl 2-(3-(3-(6-cyclopropyl-3,4′-bipyridine-2′-carboxamido)phenyl)-4H-1,2,4-triazol-4-yl)propanoate], 0.079 µM.
Turning to `NC(=O)c1cncc(-c2ccnc(C(=O)Nc3cccc(-c4nncn4C4CC4)c3)c2)c1` [Example 64, N2′-(3-(4-cyclopropyl-4H-1,2,4-triazol-3-yl)phenyl)-3,4′-bipyridine-2′,5-dicarboxamide], the midpoint of inhibition, the IC50, lay at 0.017 µM. This IC50 lies about 4.6-fold lower than the previous one.
In the case of `CC(C)n1cnnc1-c1cccc(NC(=O)c2cc(-c3ccc(C4CC4)nc3)ccn2)n1` [Example 176, 6-cyclopropyl-N-(6-(4-isopropyl-4H-1,2,4-triazol-3-yl)pyridin-2-yl)-3,4′-bipyridine-2′-carboxamide] it was 0.013 µM; in that of `O=C(Nc1cccc(-c2nncn2C2CC2)c1)c1cc(-c2cncc(Cl)c2)ccn1` [Example 76, 5-chloro-N-(3-(4-cyclopropyl-4H-1,2,4-triazol-3-yl)phenyl)-3,4′-bipyridine-2′-carboxamide], 0.034 µM.
Under `Cn1cnnc1-c1cccc(NC(=O)c2cncc(-c3ccccc3)c2)c1` [Example 2, N-(3-(4-methyl-4H-1,2,4-triazol-3-yl)phenyl)-5-phenylnicotinamide] stands 5.59 µM; under `COC(=O)Nc1ccc(-c2ccnc(C(=O)Nc3cccc(-c4nncn4C4CC4)c3)c2)cn1` [Example 23, methyl 2′-(3-(4-cyclopropyl-4H-1,2,4-triazol-3-yl)phenylcarbamoyl)-3,4′-bipyridin-6-ylcarbamate], 0.167 µM.
`O=C(Nc1cccc(-c2nncn2C2CC2)n1)c1cccc(-c2cccnc2)c1` [Example 130, N-(6-(4-cyclopropyl-4H-1,2,4-triazol-3-yl)pyridin-2-yl)-3-(pyridin-3-yl)benzamide] registered an IC50 of 0.012 µM.
Under `O=C(Nc1cccc(-c2nncn2C2CC2)c1)c1cc(-n2cnc(C3CC3)n2)ccn1` [Example 202, 4-(3-cyclopropyl-1H-1,2,4-triazol-1-yl)-N-(3-(4-cyclopropyl-4H-1,2,4-triazol-3-yl)phenyl)picolinamide] stands 0.017 µM.
In the case of `CS(=O)(=O)c1ccccc1-c1ccnc(C(=O)Nc2cccc(-c3nncn3C3CC3)c2)c1` [Example 78, N-(3-(4-cyclopropyl-4H-1,2,4-triazol-3-yl)phenyl)-4-(2-(methylsulfonyl)phenyl)picolinamide] it was 0.572 µM.
